Reference: ChEMBL document CHEMBL1201862, “PubChem BioAssay data set” (2004)
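Results reflect a 48-hour exposure of cells in 96-well plates to compound at five concentrations. GI50 = concentration required for 50% inhibition of growth.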 Activity calls are given as the source filed them. No stated cut-off is given here; in the data, active = GI50 up to about 1.1 µM and inactive = higher.

Legend:
Test in all cases: NCI anticancer screen, dose series, 48 h
CAKI-1 = test system: CAKI-1
SR = test system: SR
HCT-116 = test system: HCT-116
Hs-578T = test system: Hs-578T
UACC-257 = test system: UACC-257
SN12C = test system: SN12C
786-0 = test system: 786-0
SK-OV-3 = test system: SK-OV-3
SNB-19 = test system: SNB-19
M14 = test system: M14
SF-295 = test system: SF-295
A498 = test system: A498
KM12 = test system: KM12
K562 = test system: K562
LOX IMVI = test system: LOX IMVI
BT-549 = test system: BT-549
OVCAR-4 = test system: OVCAR-4
HOP-62 = test system: HOP-62

| Structure (SMILES) | GI50 (CAKI-1) | GI50 (SR) | GI50 (HCT-116) | GI50 (Hs-578T) | GI50 (UACC-257) | GI50 (SN12C) | GI50 (786-0) | GI50 (SK-OV-3) | GI50 (SNB-19) | GI50 (M14) | GI50 (SF-295) | GI50 (A498) | GI50 (KM12) | GI50 (K562) | GI50 (LOX IMVI) | GI50 (BT-549) | GI50 (OVCAR-4) | GI50 (HOP-62) |
| --- | --- | --- | --- | --- | --- | --- | --- | --- | --- | --- | --- | --- | --- | --- | --- | --- | --- | --- |
| COc1ccc(CN/C=N/C(C#N)=C(\N)C#N)cc1OC | > 100 µM (inactive) | > 100 µM (inactive) | > 100 µM (inactive) | > 100 µM (inactive) | > 100 µM (inactive) | > 100 µM (inactive) | > 100 µM (inactive) | > 100 µM (inactive) | > 100 µM (inactive) | > 100 µM (inactive) | > 100 µM (inactive) | 54.8 µM (inactive) | > 100 µM (inactive) | > 100 µM (inactive) | > 100 µM (inactive) | 72.3 µM (inactive) | > 100 µM (inactive) | > 100 µM (inactive) |
| CCOC(=O)NC(Nc1ccc(S(=O)(=O)Nc2nc(C)cc(C)n2)cc1)(C(=O)OCC)C(F)(F)F (configuration not stated) | > 100 µM (inactive) | 5.33 µM (inactive) | > 100 µM (inactive) | > 100 µM (inactive) | – | > 100 µM (inactive) | > 100 µM (inactive) | > 100 µM (inactive) | > 100 µM (inactive) | > 100 µM (inactive) | > 100 µM (inactive) | > 100 µM (inactive) | > 100 µM (inactive) | > 100 µM (inactive) | > 100 µM (inactive) | > 100 µM (inactive) | > 100 µM (inactive) | > 100 µM (inactive) |
| Cc1ccc(S(=O)(=O)NC(=N)N(C)N=O)cc1 | > 100 µM (inactive) | > 100 µM (inactive) | > 100 µM (inactive) | > 100 µM (inactive) | > 100 µM (inactive) | > 100 µM (inactive) | > 100 µM (inactive) | 18.5 µM (inactive) | > 100 µM (inactive) | > 100 µM (inactive) | > 100 µM (inactive) | 71.4 µM (inactive) | > 100 µM (inactive) | > 100 µM (inactive) | > 100 µM (inactive) | > 100 µM (inactive) | > 100 µM (inactive) | > 100 µM (inactive) |
| CC(C)(C)c1cc(OCc2nnc3sc(S)nn23)c(Cl)cc1OCc1nnc2sc(S)nn12 | 33.6 µM (inactive) | 18.3 µM (inactive) | 22.1 µM (inactive) | 77.3 µM (inactive) | 27.7 µM (inactive) | 30.4 µM (inactive) | 31 µM (inactive) | 45.4 µM (inactive) | 35.5 µM (inactive) | 25.9 µM (inactive) | 27.9 µM (inactive) | 39.6 µM (inactive) | 26.9 µM (inactive) | 32.6 µM (inactive) | 18.4 µM (inactive) | 30.5 µM (inactive) | 32.5 µM (inactive) | 44.1 µM (inactive) |
| COc1c(-c2ccc(O)c(O)c2)oc2c(O)c(O)cc(O)c2c1=O | 64.6 µM (inactive) | 22 µM (inactive) | 40.4 µM (inactive) | 49.5 µM (inactive) | > 100 µM (inactive) | 16.9 µM (inactive) | 67.5 µM (inactive) | 85.9 µM (inactive) | > 100 µM (inactive) | > 10 µM (inactive) | 39.1 µM (inactive) | > 100 µM (inactive) | 66.5 µM (inactive) | 20.8 µM (inactive) | 15.2 µM (inactive) | > 100 µM (inactive) | 50.6 µM (inactive) | 26.7 µM (inactive) |
| N=C(N)SCCON1C(=O)c2ccccc2C1=O | > 100 µM (inactive) | > 100 µM (inactive) | > 100 µM (inactive) | > 100 µM (inactive) | > 100 µM (inactive) | > 100 µM (inactive) | > 100 µM (inactive) | > 100 µM (inactive) | > 100 µM (inactive) | > 100 µM (inactive) | > 100 µM (inactive) | > 100 µM (inactive) | > 100 µM (inactive) | > 100 µM (inactive) | > 100 µM (inactive) | > 100 µM (inactive) | > 100 µM (inactive) | > 100 µM (inactive) |
| Cc1ccc(-c2cn3c(nc4ccccc43)c(/C=C/c3ccco3)n2)cc1 | – | 19.6 µM (inactive) | > 100 µM (inactive) | 31.9 µM (inactive) | 82.6 µM (inactive) | 86.9 µM (inactive) | 48 µM (inactive) | > 100 µM (inactive) | > 100 µM (inactive) | > 100 µM (inactive) | – | > 100 µM (inactive) | 50.1 µM (inactive) | 37.7 µM (inactive) | 69.2 µM (inactive) | > 100 µM (inactive) | 56.8 µM (inactive) | > 100 µM (inactive) |
| c1ccc2c(c1)OC(N1CCCC1)c1cnc(N3CCCC3)nc1-2 (configuration not stated) | 20.9 µM (inactive) | 29.7 µM (inactive) | 39.2 µM (inactive) | 30.5 µM (inactive) | 20.6 µM (inactive) | 45.2 µM (inactive) | 40.3 µM (inactive) | 44.1 µM (inactive) | 92.5 µM (inactive) | 50.9 µM (inactive) | 30.4 µM (inactive) | 26.5 µM (inactive) | 41.3 µM (inactive) | 34.3 µM (inactive) | 45.9 µM (inactive) | 21.2 µM (inactive) | 36.2 µM (inactive) | 68.2 µM (inactive) |
| CCCCNc1nc(NC2OCC(OC(C)=O)C(OC(C)=O)C2OC(C)=O)c(N=O)c(=O)n1C (configuration not stated) | > 10 µM (inactive) | > 10 µM (inactive) | > 10 µM (inactive) | > 10 µM (inactive) | > 10 µM (inactive) | > 10 µM (inactive) | > 10 µM (inactive) | > 10 µM (inactive) | > 10 µM (inactive) | > 10 µM (inactive) | > 10 µM (inactive) | > 10 µM (inactive) | > 10 µM (inactive) | – | > 10 µM (inactive) | > 10 µM (inactive) | > 10 µM (inactive) | > 10 µM (inactive) |
| CCOP(=O)(OCC)c1ccc(=O)[nH]c1-c1cccs1 | > 100 µM (inactive) | > 100 µM (inactive) | > 100 µM (inactive) | > 100 µM (inactive) | > 100 µM (inactive) | > 100 µM (inactive) | > 100 µM (inactive) | > 100 µM (inactive) | > 100 µM (inactive) | > 100 µM (inactive) | > 100 µM (inactive) | > 100 µM (inactive) | > 100 µM (inactive) | > 100 µM (inactive) | – | > 100 µM (inactive) | > 100 µM (inactive) | > 100 µM (inactive) |
| Cc1ccc(C2NC(=N)NC3=C2CCOc2c3ccc3ccccc23)cc1 (configuration not stated) | 3.66 µM (inactive) | 0.466 µM (active) | 1.93 µM (inactive) | 20.5 µM (inactive) | 31.3 µM (inactive) | 6.38 µM (inactive) | 2.61 µM (inactive) | 42 µM (inactive) | 29.6 µM (inactive) | 1.76 µM (inactive) | 16 µM (inactive) | 17.3 µM (inactive) | 4.21 µM (inactive) | 2.19 µM (inactive) | – | 6.04 µM (inactive) | 9.38 µM (inactive) | 4.94 µM (inactive) |
| COc1cc(C2SC(=N)Nc3c2c(C)nn3C(=O)c2ccc(Cl)cc2)ccc1O (configuration not stated) | > 10 µM (inactive) | > 10 µM (inactive) | > 10 µM (inactive) | > 10 µM (inactive) | > 10 µM (inactive) | > 10 µM (inactive) | > 10 µM (inactive) | > 10 µM (inactive) | > 10 µM (inactive) | > 10 µM (inactive) | > 10 µM (inactive) | – | > 10 µM (inactive) | > 10 µM (inactive) | > 10 µM (inactive) | > 10 µM (inactive) | > 10 µM (inactive) | > 10 µM (inactive) |
| Cc1ccc(C)c(N2C(=O)C(=O)c3c(C)ccc(C)c32)c1 | 25.5 µM (inactive) | 15.4 µM (inactive) | 16.3 µM (inactive) | 22.4 µM (inactive) | 24 µM (inactive) | 26.8 µM (inactive) | 29.3 µM (inactive) | 47.9 µM (inactive) | 40.6 µM (inactive) | 17.1 µM (inactive) | 22.9 µM (inactive) | – | 24.5 µM (inactive) | 22 µM (inactive) | 17.4 µM (inactive) | 19.5 µM (inactive) | 18.8 µM (inactive) | 40.6 µM (inactive) |
| Cc1ccc(Cc2n[nH]c(=O)n2Nc2ccccc2)cc1 | > 100 µM (inactive) | > 100 µM (inactive) | > 100 µM (inactive) | > 100 µM (inactive) | > 100 µM (inactive) | > 100 µM (inactive) | > 100 µM (inactive) | > 100 µM (inactive) | > 100 µM (inactive) | – | > 100 µM (inactive) | > 100 µM (inactive) | > 100 µM (inactive) | > 100 µM (inactive) | > 100 µM (inactive) | > 100 µM (inactive) | > 100 µM (inactive) | > 100 µM (inactive) |
| NCCCc1ccc2oc3ccccc3c2c1 | 16.2 µM (inactive) | 16.2 µM (inactive) | 15.3 µM (inactive) | 21.3 µM (inactive) | 17.9 µM (inactive) | 17 µM (inactive) | 13.7 µM (inactive) | 17.1 µM (inactive) | 16 µM (inactive) | 15.8 µM (inactive) | 18.5 µM (inactive) | 16.1 µM (inactive) | – | 24.2 µM (inactive) | 18.5 µM (inactive) | 19.9 µM (inactive) | 19.9 µM (inactive) | 17.6 µM (inactive) |
| Cc1ccc(NC(Nc2ccc(C)cc2C)=C(C(Cl)=C(Cl)Cl)[N+](=O)[O-])c(C)c1 | 20.6 µM (inactive) | 2.9 µM (inactive) | 13.7 µM (inactive) | 22.8 µM (inactive) | 15.9 µM (inactive) | 14.7 µM (inactive) | 16.1 µM (inactive) | 20 µM (inactive) | 16.2 µM (inactive) | 5.36 µM (inactive) | – | 21.3 µM (inactive) | 15.2 µM (inactive) | 9.53 µM (inactive) | 5.83 µM (inactive) | 14.2 µM (inactive) | 15.7 µM (inactive) | 16.9 µM (inactive) |
